Patent publication US7083941B2, “Compositions and methods for gender sorting” (priority 2001, dated 2006)
Like-named read-outs stand apart in the source and are kept apart here.

Biological target: T1, human estrogen receptor (Homo sapiens, UniProt P03372, G400V)
T1 sequence (P03372 1-595 G400V): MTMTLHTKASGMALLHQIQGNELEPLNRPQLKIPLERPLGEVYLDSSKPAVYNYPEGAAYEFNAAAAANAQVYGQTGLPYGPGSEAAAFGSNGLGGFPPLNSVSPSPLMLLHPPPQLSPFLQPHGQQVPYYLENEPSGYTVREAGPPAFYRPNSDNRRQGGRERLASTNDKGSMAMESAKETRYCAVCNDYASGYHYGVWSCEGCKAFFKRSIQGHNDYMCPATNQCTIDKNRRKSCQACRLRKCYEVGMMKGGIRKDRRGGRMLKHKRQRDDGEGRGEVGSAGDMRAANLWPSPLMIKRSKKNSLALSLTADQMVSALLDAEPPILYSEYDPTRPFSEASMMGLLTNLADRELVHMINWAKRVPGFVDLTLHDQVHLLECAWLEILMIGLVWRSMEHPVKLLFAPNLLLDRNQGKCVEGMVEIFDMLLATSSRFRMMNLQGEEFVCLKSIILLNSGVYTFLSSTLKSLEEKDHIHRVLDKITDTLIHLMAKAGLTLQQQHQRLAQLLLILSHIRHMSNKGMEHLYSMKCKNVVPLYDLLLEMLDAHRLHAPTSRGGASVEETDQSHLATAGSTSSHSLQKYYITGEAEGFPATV

[1] = cross-activity determined at concentration of 50% maximum potency, 17-β Estradiol = 100

Procedure: 100 μl of the cell culture was spiked into each well of a 96-well microtiter plate. Ligand (2 μl diluted in DMSO) was added to each well to produce a final concentration of 2% DMSO. As a control, 2 μl of DMSO were also added to additional test wells.
The cells were incubated in the presence of the ligand in a shaker at 30° C. […] The relative activity of β-galactosidase was calculated as follows: (1000×ODreaction)/(tincubation×ODculture).

Compound	Percent Cross Reactivity	Percent Cross Reactivity [1]
4-Hydroxytamoxifen	<0.25%	
COc1cc2c(cc1O)CC[C@@H]1[C@@H]2CC[C@]2(C)C(=O)CC[C@@H]12 [2-Methoxyestrone]		<0.25%
C[C@]12CC[C@@H]3c4ccc(O)cc4CC[C@H]3[C@@H]1C[C@@H](O)C2=O [16-Hydroxyestrone]		4.0%
C[C@]12CCC(=O)C=C1CC[C@@H]1[C@@H]2CC[C@]2(C)C(=O)CC[C@@H]12 [Androstenedione]		<0.05%
C[C@]12C[C@H](O)[C@H]3[C@@H](CCC4=CC(=O)CC[C@@]43C)[C@@H]1CC[C@@H]2C(=O)CO [Corticosterone]		<0.025%
C#C[C@]1(O)CC[C@H]2[C@@H]3CCC4=Cc5oncc5C[C@]4(C)[C@H]3CC[C@@]21C [Danasol]		<0.025%
C[C@]12CC[C@H](O)CC1=CC[C@@H]1[C@@H]2CC[C@]2(C)C(=O)CC[C@@H]12 [Dehydroepiandrosterone]		<0.05%
C[C@H]1CC(=O)C[C@@H]2CC[C@H]3[C@@H]4CC[C@H](O)[C@@]4(C)CC[C@@H]3[C@]21C [Mesterolone]		<0.05%
CC(=O)[C@H]1CC[C@H]2[C@@H]3CCC4=CC(=O)CC[C@]4(C)[C@H]3CC[C@]12C [Progesterone]		<0.025%
C[C@]12CC[C@H]3[C@@H](CCC4=CC(=O)CC[C@@]43C)[C@@H]1CC[C@@H]2O [Testosterone]		<0.05%
